Experimental data from PubChem BioAssay AID1199 (EPA DSSTox, 2008).
Calls of active or inactive are those of the source.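 The calls were made as follows: active = a tumour-causing dose and a tumour site recorded for mice in at least one sex group; inconclusive = only government mouse studies exist and were judged inadequate; inactive = mouse studies exist but none gave tumours.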

System: mouse carcinogenicity bioassay, TD50 from CPDB
Test: DSSTox (CPDBAS) Carcinogenic Potency Database Summary Mouse Bioassay Results
Procedure, shortened: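 Chronic long-term mouse cancer bioassays from literature and NCI/NTP, compiled per sex. TD50 is the standardized carcinogenic potency, using the most positive experiment per sex-species; target sites follow author opinion.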

[1] = TD50_Mouse_Note: no positive results, TargetSites_Mouse_Female: no positive results
[2] = TD50_Mouse_Note: TD50 is harmonic mean of more than one positive test, TargetSites_Mouse_Female: liver
[3] = TD50_Mouse_Note: TD50 is harmonic mean of more than one positive test, TargetSites_Mouse_Female: lung
[4] = TD50_Mouse_Note: TD50 value is overestimated as upper 99% confidence limit from study with 100% tumor incidence but no lifetable, harmoni
[5] = TD50_Mouse_Note: TD50 is harmonic mean of more than one positive test, TargetSites_Mouse_Female: liver, lung, stomach
[6] = TargetSites_Mouse_Female: liver
[7] = TargetSites_Mouse_Female: hematopoietic system
[8] = TD50_Mouse_Note: TD50 is harmonic mean of more than one positive test, TargetSites_Mouse_Female: stomach
[9] = TD50_Mouse_Note: TD50 is harmonic mean of more than one positive test, greater than ten-fold variation among TD50 values for positive res, TargetSites_Mouse_Female: liver
[10] = TD50_Mouse_Note: no positive results

CC1(C)[C@@H](OC2O[C@H](C(=O)O)[C@@H](O)[C@H](O)[C@H]2O[C@H]2O[C@H](C(=O)O)[C@@H](O)[C@H](O)[C@H]2O)CC[C@]2(C)[C@H]3C(=O)C=C4[C@@H]5C[C@@](C)(C(=O)O)CC[C@]5(C)CC[C@@]4(C)[C@]3(C)CC[C@@H]12 (some centres undefined)
outcome [1]: inactive; no positive results

CC1(C)S[C@@H]2[C@H](NC(=O)[C@H](N)c3ccccc3)C(=O)N2[C@H]1C(=O)O
outcome [1]: inactive; no positive results

[N-]=[N+]=O
outcome [1]: inactive; no positive results

CN(C)C=O
outcome [1]: inactive; no positive results

C=CC(O)c1ccc2c(c1)OCO2 (centres undefined)
Potency [2]: 0.4 mmol/kg/day

CC(=O)Nc1ccc(O)cc1
Potency [2]: 10.7 mmol/kg/day

CCOC(=O)CC(SP(=O)(OC)OC)C(=O)OCC (centres undefined)
outcome [1]: inactive; no positive results

ClC1=C(Cl)C2(Cl)C3C(Cl)C=CC3C1(Cl)C2(Cl)Cl (centres undefined)
Potency [2]: 0.00324 mmol/kg/day

Clc1c(Cl)c(Cl)c(Cl)c(Cl)c1Cl
Potency [2]: 0.229 mmol/kg/day

CCCc1ccc2c(c1)OCO2
Potency [3]: 0.761 mmol/kg/day

C=CCNNCC=C
Potency [3]: 0.183 mmol/kg/day

ClC1C(Cl)C(Cl)C(Cl)C(Cl)C1Cl (centres undefined)
Potency [2]: 0.0956 mmol/kg/day | Potency (TD50_Mouse_Note: TD50 is harmonic mean of more than one positive test, TargetSites_Mouse_Female: liver, lung): 0.106 mmol/kg/day | Potency (TD50_Mouse_Note: TD50 is harmonic mean of more than one positive test, harmonic mean of TD50 includes a value for upper 99% confidence li, TargetSites_Mouse_Female: liver): 0.0509 mmol/kg/day | Potency [4]: 0.0228 mmol/kg/day

[N]=O
outcome [1]: inactive

CC(=O)Nc1ccc(S(=O)(=O)O)c2cc(S(=O)(=O)O)c(N=Nc3ccc(N=Nc4ccc(S(=O)(=O)O)cc4)c4ccc(S(=O)(=O)O)cc34)c(O)c12
outcome [1]: inactive; no positive results

CCN(N)C=O
Potency (TD50_Mouse_Note: TD50 is harmonic mean of more than one positive test, TargetSites_Mouse_Female: lung, vascular system): 0.0318 mmol/kg/day

NNC(=O)c1cccnc1
Potency [3]: 1.66 mmol/kg/day

Nc1c(Br)cc(Br)c2c1C(=O)c1ccccc1C2=O
Potency [5]: 1.25 mmol/kg/day

O=C(O)c1[nH]n(-c2ccc(S(=O)(=O)O)cc2)c(=O)c1N=Nc1ccc(S(=O)(=O)O)cc1
outcome [1]: inactive; no positive results

COc1ccc(N)cc1N
Potency (TD50_Mouse_Note: TD50 is harmonic mean of more than one positive test, TargetSites_Mouse_Female: thyroid gland): 3.83 mmol/kg/day

Cn1cc(C(=O)[C@@H]2CCc3nc[nH]c3C2)c2ccccc21
outcome [1]: inactive; no positive results

CO[C@H]1/C=C/O[C@@]2(C)Oc3c(C)c(O)c4c(O)c(c(/C=N/N5CCN(C)CC5)c(O)c4c3C2=O)NC(=O)/C(C)=C\C=C\[C@H](C)[C@H](O)[C@@H](C)[C@@H](O)[C@@H](C)[C@H](OC(C)=O)[C@@H]1C
Potency [6]: 0.0408 mmol/kg/day

Cn1cc(C(=O)O)c(=O)c2ccc(/C=C/c3ccc([N+](=O)[O-])o3)nc21
Potency (TargetSites_Mouse_BothSexes: hematopoietic system, lung, stomach): 0.0212 mmol/kg/day

C=CF
Potency (TD50_Mouse_Note: TD50 is harmonic mean of more than one positive test, TargetSites_Mouse_Female: harderian gland, lung, mammary gland, vascular system): 0.176 mmol/kg/day

CC[C@H]1OC(=O)[C@H](C)[C@@H](O[C@H]2C[C@@](C)(OC)[C@@H](O)[C@H](C)O2)[C@H](C)[C@@H](O[C@@H]2O[C@H](C)C[C@H](N(C)C)[C@H]2O)[C@](C)(O)C[C@@H](C)C(=O)[C@H](C)[C@@H](O)[C@]1(C)O
outcome [1]: inactive; no positive results

COP(=O)(OC)O/C(=C\Cl)c1cc(Cl)c(Cl)cc1Cl
Potency (TargetSites_Mouse_Female: no positive results - CPDB evaluation based on NCI Technical Report): 0.623 mmol/kg/day

NNc1nc(-c2ccc(N)cc2)cs1
Potency [7]: 0.0548 mmol/kg/day

COP(=O)(OC)OC=C(Cl)Cl
Potency [8]: 0.319 mmol/kg/day

ClC1=C(Cl)[C@@]2(Cl)[C@@H]3[C@@H](Cl)[C@H](Cl)C[C@@H]3C1(Cl)C2(Cl)Cl
Potency [9]: 0.00334 mmol/kg/day

COc1ccc([N+](=O)[O-])cc1N
Potency [6]: 22.1 mmol/kg/day

CC(C)C=O
outcome [1]: inactive; no positive results

CC1=C(C(=O)OCCN(Cc2ccccc2)c2ccccc2)C(c2cccc([N+](=O)[O-])c2)C(P2(=O)OCC(C)(C)CO2)=C(C)N1 (centres undefined)
outcome [1]: inactive; no positive results

CCN(CC)C(=S)SSC(=S)N(CC)CC
outcome [1]: inactive; no positive results

Nc1nc(-c2ccc([N+](=O)[O-])cc2)cs1
Potency [7]: 0.045 mmol/kg/day

C=C(C)C
outcome [1]: inactive; no positive results

COc1cc(N)ccc1N=Nc1ccccc1
outcome [1]: inactive; no positive results

Nc1cc(Cl)c(-c2cc(Cl)c(N)cc2Cl)cc1Cl
outcome [1]: inactive

Nc1ccc(Sc2ccc(N)cc2)cc1
Potency (TD50_Mouse_Note: TD50 is harmonic mean of more than one positive test, TargetSites_Mouse_Female: liver, thyroid gland): 0.153 mmol/kg/day

Nc1ccc2ccccc2c1S(=O)(=O)O
outcome [1]: inactive; no positive results

CCN(CC)C(=S)[S-].CCN(CC)C(=S)[S-].[Cd+2]
outcome [1]: inactive; no positive results

CCCCOC(=O)c1ccccc1C(=O)OCc1ccccc1
outcome [1]: inactive; no positive results

O=C(O)c1cc(Oc2ccc(C(F)(F)F)cc2Cl)ccc1[N+](=O)[O-]
Potency (TD50_Mouse_Note: TD50 is harmonic mean of more than one positive test, TargetSites_Mouse_Female: liver, stomach): 0.39 mmol/kg/day

O=C(O)O
outcome [10]: inactive; no positive results

Nc1ccc(-c2ccc(N)c(Cl)c2)cc1Cl
Potency [4]: 0.0377 mmol/kg/day

Cn1c(=O)c2c(ncn2C)n(C)c1=O
outcome [1]: inactive; no positive results

Clc1ccc2c(c1)C(c1ccccc1)=NCc1nncn1-2
outcome [1]: inactive; no positive results

C/C=N/N(C)C=O
Potency (TD50_Mouse_Note: TD50 is harmonic mean of more than one positive test, TargetSites_Mouse_Female: clitoral gland, lung, stomach): 0.0251 mmol/kg/day

CN(C)C(=S)S[Se](SC(=S)N(C)C)(SC(=S)N(C)C)SC(=S)N(C)C
outcome [1]: inactive; no positive results

OC[C@@H](O)[C@@H](O)[C@H](O)[C@H](O)CO
outcome [1]: inactive; no positive results

O=C1C(Cl)=C(Cl)C(=O)C(Cl)=C1Cl
outcome [1]: inactive; no positive results

O=S(=O)([O-])[O-].O=S(=O)([O-])[O-].[Zr+4]
outcome (TargetSites_Mouse_BothSexes: no positive results): inactive

Nc1ccc2c(n1)[nH]c1ccccc12
Potency (TD50_Mouse_Note: TD50 is harmonic mean of more than one positive test, TargetSites_Mouse_Female: liver, vascular system): 0.272 mmol/kg/day

C=C1CC[C@H](O)C/C1=C/C=C1\CCC[C@]2(C)[C@@H]([C@H](C)/C=C/[C@H](C)C(C)C)CC[C@@H]12
outcome [10]: inactive

CCCOC(=O)c1cc(O)c(O)c(O)c1
outcome [1]: inactive; no positive results

S=C=Nc1ccccc1
outcome [1]: inactive; no positive results

O[C@@H]([C@H](O)[C@@H](O)CBr)[C@@H](O)CBr
Potency (TD50_Mouse_Note: positive test results only by intraperitoneal or intravenous injection, TD50 is harmonic mean of more than one positive, TargetSites_Mouse_Female: hematopoietic system, lung): 0.0484 mmol/kg/day

OCCO
outcome [1]: inactive; no positive results

CCCCCc1cc(O)c2c(c1)OC(C)(C)[C@@H]1CCC(C)=C[C@@H]21
outcome [1]: inactive; no positive results

NC(=O)c1cnccn1
outcome (TD50_Mouse_Note: no positive results, TargetSites_Mouse_Female: NTP bioassay inadequate): inactive; no positive results

O=C(O)c1ccc([N+](=O)[O-])cc1
outcome [1]: inactive; no positive results

CS(=O)(=O)OCCCNCCCOS(C)(=O)=O
outcome [1]: inactive; no positive results

CCN(CC)C(=O)/C(Cl)=C(\C)OP(=O)(OC)OC
outcome [1]: inactive; no positive results

COc1c(Cl)c(Cl)c([N+](=O)[O-])c(Cl)c1Cl
outcome [1]: inactive; no positive results

CN(C)CCC(c1ccc(Cl)cc1)c1ccccn1 (centres undefined)
outcome [1]: inactive; no positive results

Nc1nc(-c2ccc([N+](=O)[O-])o2)cs1
Potency (TargetSites_Mouse_Female: stomach): 0.0373 mmol/kg/day

CN(C)N=O
Potency (TD50_Mouse_Note: TD50 is harmonic mean of more than one positive test, TargetSites_Mouse_Female: lung, nervous system): 0.00255 mmol/kg/day

N#Cc1c(Cl)c(Cl)c(Cl)c(C#N)c1Cl
outcome [1]: inactive; no positive results

c1ccc2occc2c1
Potency [5]: 0.212 mmol/kg/day

Nc1cccc2c(N)cccc12
Potency (TD50_Mouse_Note: TD50 is harmonic mean of more than one positive test, TargetSites_Mouse_Female: liver, lung, thyroid gland): 1.02 mmol/kg/day

C=C(C)C#N
outcome [1]: inactive; no positive results

Nc1ccccc1C(=O)OC/C=C/c1ccccc1
Potency [2]: 10.2 mmol/kg/day

O=C1c2cccc(O)c2C(=O)c2c(O)cccc21
Potency: 0.837 mmol/kg/day

O=P(OCC(Br)CBr)(OCC(Br)CBr)OCC(Br)CBr (centres undefined)
Potency [5]: 0.183 mmol/kg/day

FC(F)(Cl)Cl
outcome [1]: inactive; no positive results

CC(C)(OCc1ccc(-c2ccc(Cl)cc2)cc1)C(=O)O
Potency (TargetSites_Mouse_Female: no positive results): 0.505 mmol/kg/day

COC(=O)C(C)(C)Oc1ccc(-c2ccc(Cl)cc2)cc1
Potency [9]: 0.00824 mmol/kg/day

c1ccc2sc(SN3CCOCC3)nc2c1
outcome [1]: inactive; no positive results

Cn1c(=O)c2[nH]cnc2n(C)c1=O
outcome [1]: inactive; no positive results

Nc1cccc2ccccc12
Potency: 0.47 mmol/kg/day

NC(=O)Cc1cccc2ccccc12
outcome [1]: inactive; no positive results

OCC(CO)(CBr)CBr
Potency (TD50_Mouse_Note: TD50 is harmonic mean of more than one positive test, TargetSites_Mouse_Female: harderian gland, lung, subcutaneous tissue): 0.523 mmol/kg/day

ClCc1ccccc1
Potency [8]: 0.486 mmol/kg/day
